Test results published in patent publication US6632962B2, “Caspase inhibitors and uses thereof” (Vertex Pharmaceuticals Incorporated, priority 1999, dated 2003).
Structures can show the parent of a compound that is named as a salt.

Experiments:
Jurkat E6.1 cells = test: Anti-Fas induced apoptosis assay (DNA fragmentation); assay type: cell-based; details: Homo sapiens, anti-Fas antibody CH-11 10 ng/ml, 16-18 hrs, DNA fragmentation OD405
From the text: Cellular apoptosis may be induced by the binding of Fas ligand (FasL) to its receptor, CD95 (Fas). CD95 is one of a family of related receptors, known as death receptors, which can trigger apoptosis in cells via activation of the caspase enzyme cascade. The process is initiated by the binding of the adapter molecule FADD/MORT-1 to the cytoplasmic domain of the CD-95 receptor-ligand complex. Caspase-8 then binds FADD and becomes activated, initiating a cascade of events that involve the activation of downstream caspases and subsequent cellular apoptosis. Apoptosis can also be induced in cells expressing CD95 eg the Jurkat E6.1 T cell lymphoma cell line, using an antibody, rather than FasL, to crosslink the cell surface CD95. Anti-Fas-induced apoptosis is also triggered via the activation of caspase-8. This provides the basis of a cell-based assay to screen compounds for inhibition of the caspase-8-mediated apoptotic pathway.
Jurkat E6.1 cells are cultured in complete medium consisting of RPMI-1640 (Sigma No)+10% foetal calf serum (Gibco BRL No.10099-141)+2 mM L-glutamine (Sigma No. G-7513). The cells are harvested in log phase of growth. 100 ml Cells at 5-8×10^5 cells/ml are transferred to sterile 50 ml Falcon centrifuge tubes and centrifuged for 5 minutes at 100× g at room temperature. The supernatant is removed and the combined cell pellets resuspended in 25 ml of complete medium. The cells are counted and the density adjusted to 2×10^6 cells/ml with complete medium.
The test compound was dissolved in dimethyl sulfoxide (DMSO)(Sigma No. D-2650) to give a 100 mM stock solution. This was diluted to 400 μM in complete medium, then serially diluted in a 96-well plate prior to addition to the cell assay plate.
100-μl of the cell suspension ([…]) were added to each well of a sterile 96-well round-bottomed cluster plate (Costar No. 3790). 50 μl of compound solution at the appropriate dilution and 50 μl of anti-Fas antibody, clone CH-11 (Kamiya No.MC-060) at a final concentration of 10 ng/ml, were added to the wells. Control wells were set up minus antibody and minus compound but with a serial dilution of DMSO as vehicle control. The plates were incubated for 16-18 hrs at 37° C. in 5% CO2 and 95% humidity.
Apoptosis of the cells was measured by the quantitation of DNA fragmentation using a ‘Cell Death Detection Assay’ from Boehringer-Mannheim, No. 1544 675. After incubation for 16-18 hrs the assay plates were centrifuged at 100× g at room temperature for 5 minutes. 150 μl of the supernatant were removed and replaced by 150 μl of fresh complete medium. The cells were then harvested and 200 μl of the lysis buffer supplied in the assay kit were added to each well. The cells were triturated to ensure complete lysis and incubated for 30 minutes at 4° C. The plates were then centrifuged at 1900× g for 10 minutes and the supernatants diluted 1:20 in the incubation buffer provided. 100 μl of this solution were then assayed exactly according to the manufacturer's instructions supplied with the kit. OD405 nm were measured 20 minutes after addition of the final substrate in a SPECTRAmax Plus plate reader (molecular Devices). OD405 nm was plotted versus compound concentration and the IC50 values for the compounds were calculated using the curve-fitting program SOFTmax Pro (Molecular Devices) using the four parameter fit option.

[1] = biological target: recombinant, purified human caspase-8 (Homo sapiens, UniProt Q14790); test: Caspase-8 assay (fluorogenic substrate cleavage, kinact); assay type: biochemical; details: second order rate constant of inactivation; 1.5 nM caspase-8, 10 μM AcDEVD-AMC, 37° C.
Chain of recombinant, purified human caspase-8 (Q14790 217-374 limits assumed): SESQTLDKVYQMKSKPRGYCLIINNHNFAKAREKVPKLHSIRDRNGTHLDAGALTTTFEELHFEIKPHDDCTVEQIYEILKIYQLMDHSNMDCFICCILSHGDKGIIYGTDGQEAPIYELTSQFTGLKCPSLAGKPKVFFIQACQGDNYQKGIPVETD
Chain of recombinant, purified human caspase-8 (Q14790 385-479 limits assumed): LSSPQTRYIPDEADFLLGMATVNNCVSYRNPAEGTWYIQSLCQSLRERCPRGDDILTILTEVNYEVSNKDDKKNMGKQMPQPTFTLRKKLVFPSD
Description: The assay for caspase-8 activity was based on the cleavage of a fluorogenic substrate by recombinant, purified human caspase-8 essentially according to the method described by Garcia-Calvo et al (1998) J. Biol. Chem. 273:32608-32613.
(§1) Assay Buffer: 10 mM Tris-HCI (Sigma T-3038), 1 mM dithiothreitol (DTT) (Calbiochem 233153), 0.1% CHAPS (Sigma C-3023), pH 7.5. Purified recombinant human Caspase-8. Substrate (acetyl-Asp-Glu-Val-Asp-amino-4-methyl coumarin, ACDEVD-AMC) (Bachem, I-1660). Serial dilution of test compound in DMSO (Sigma D-2650).
(§2) 70 microliters (μl) assay buffer, 20 μl of substrate and 5 μl of the inhibitor solution were added to the wells of a 96-well microtiter assay plate giving a final concentration of 1.5 nM caspase-8 and 10 μM substrate. The plate was incubated at 50° C. for 15 minutes in a thermostatically controlled plate warmer (Wesbart, UK). The reaction was then started by the addition of enzyme directly to the wells. The reaction was monitored continuously for 20 minutes in a fluorimeter (SPECTRAmax Gemini, Molecular Devices) at 37° C. by following the release of AMC fluorophor at an excitation wavelength of 390 nm and an emission wavelength of 460 nm. For each well, the observed rate of enzyme inactivation at a particular inhibitor concentration, kobs, was computed by direct fits of the data to the equation derived by Thornberry et al., (1994, Biochemistry 33, […]) using a non-linear least squares analysis computer program (PRISM 2.0, Graph Pad Software). To obtain the second order rate constant, kinact, kobs values were plotted against their respective inhibitor concentrations and kinact values were subsequently calculated by computerized linear regression.

Caspase-9 = biological target: T1, Caspase-9 (Homo sapiens, UniProt P55211); test: Caspase-9 assay (fluorogenic substrate cleavage, kinact); assay type: biochemical; details: second order rate constant of inactivation; 0.00125 units/ml caspase-9, 50 μM AcDEVD-AMC, buffer with 8% glycerol
T1 construct: purchased Europa Bioproducts UBC2088
T1 sequence (P55211 1-315 limits assumed): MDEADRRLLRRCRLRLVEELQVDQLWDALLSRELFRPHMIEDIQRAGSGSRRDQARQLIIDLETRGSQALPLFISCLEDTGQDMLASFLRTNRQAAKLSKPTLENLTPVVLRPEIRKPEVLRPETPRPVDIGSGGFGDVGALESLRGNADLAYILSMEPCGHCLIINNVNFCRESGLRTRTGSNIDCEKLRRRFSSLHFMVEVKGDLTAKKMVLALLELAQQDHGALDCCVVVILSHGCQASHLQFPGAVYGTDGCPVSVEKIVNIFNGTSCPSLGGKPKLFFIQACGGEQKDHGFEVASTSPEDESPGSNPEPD
T1 sequence (P55211 331-416 limits assumed): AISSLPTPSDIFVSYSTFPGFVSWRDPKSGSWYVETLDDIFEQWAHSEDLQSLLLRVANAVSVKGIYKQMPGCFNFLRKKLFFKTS
Description: as §1, §2
Caspase-9 was purchased from Europa Bioproducts (order No UBC2088) and used with a concentration of 0.00125 units/ml (units defined by the manufacturer as amount of enzyme that cleaves 1 nmol of LEHD-pNA in 1 h at 37° C.). The assay was run as described for the caspase-8 assay except that the caspase-9 buffer additionally contained 8% glycerol (and the substrate concentration is 50 μM AcDEVD-AMC as opposed to 10 μM for caspase-8).

SMILES	IC50 (Jurkat E6.1 cells) [nM]	Kinact (1/M/s), Caspase-8 Activity [1]	Kinact (1/M/s), Caspase-9 Activity (Caspase-9)
O=C(O)CC(NC(=O)c1ccc(Cl)c(Cl)c1)C(=O)CF (centres unmarked) [Example 7, 3-(3,4-Dichlorobenzoylamino)-5-fluoro-4-oxo-pentanoic Acid]	200 to 1000	B (kinact between 40,000 and 60,000)	–
O=C(O)CC(NC(=O)c1cc2ccccc2[nH]1)C(=O)CF (centres unmarked) [Example 31, 5-Fluoro-3-(1H-indolyl-2-carboxamido)-4-oxo-pentanoi c Acid]	> 1000	C (kinact less than 40,000)	–
N#Cc1cccc(C(=O)NC(CC(=O)O)C(=O)CF)c1 (centres unmarked) [Example 19, 3-(3-Cyanobenzoylamino)-5-fluoro-4-oxo-pentanoic Acid]	200 to 1000	B (kinact between 40,000 and 60,000)	–
O=C(O)CC(NC(=O)c1ccc(C(F)(F)F)cc1)C(=O)CF (centres unmarked) [Example 13, 5-Fluoro-3-(4-trifluoromethylbenzoylamino)-4-oxo-pent anoic Acid]	> 1000	C (kinact less than 40,000)	–
O=C(O)CC(NC(=O)c1cccc(F)c1)C(=O)CF (centres unmarked) [Example 10, 5-Fluoro-3-(3-fluorobenzoylamino)-4-oxo-pentanoic Acid]	< 200	B (kinact between 40,000 and 60,000)	–
O=C(O)CC(NC(=O)c1ccccc1Cl)C(=O)CF (centres unmarked) [Example 4, 3-(2-Chlorobenzoylamino)-5-fluoro-4-oxo-pentanoic Acid]	< 200	C (kinact less than 40,000)	–
O=C(O)CC(NC(=O)c1cccc(Oc2ccccc2)c1)C(=O)CF (centres unmarked) [Example 37, 5-Fluoro-4-oxo-3-(3-phenoxybenzoylamino)-pentanoic Acid]	< 200	A (kinact (1/M/s) greater than 60,000)	–
O=C(O)CC(NC(=O)c1cccc2ccccc12)C(=O)CF (centres unmarked) [Example 22, 5-Fluoro-3-(naphthyl-1-carboxamido)-4-oxo-pentanoic acid]	< 200	B (kinact between 40,000 and 60,000)	–
O=C(O)CC(NC(=O)c1cccs1)C(=O)CF (centres unmarked) [Example 28, 5-Fluoro-4-oxo-3-(thienyl-2-carboxamido)-pentanoic Acid]	< 200	C (kinact less than 40,000)	–
O=C(O)CC(NC(=O)c1cccc(-c2ccccc2)c1)C(=O)CF (centres unmarked) [Example 14, 3-(Biphenyl-3-carboxamido)-5-fluoro-4-oxo-pentanoic Acid]	–	–	B (kinact less than 60,000)
O=C(O)CC(NC(=O)c1ccsc1)C(=O)CF (centres unmarked) [Example 29, 5-Fluoro-4-oxo-3-(thienyl-3-carboxamido)-pentanoic Acid]	–	–	B (kinact less than 60,000)
O=C(O)CC(NC(=O)c1cccnc1)C(=O)CF (centres unmarked) [Example 25, 5-Fluoro-4-oxo-3-(pyridyl-3-carboxamido)-pentanoic Acid Trifluoroacetate Salt]	< 200	B (kinact between 40,000 and 60,000)	–
O=C(O)CC(NC(=O)c1ccccc1)C(=O)CF (centres unmarked) [Example 1, 3-Benzoylamino-5-fluoro-4-oxo-pentanoic Acid]	< 200	A (kinact (1/M/s) greater than 60,000)	A (kinact (1/M/s) greater than 60,000)
COc1cccc(C(=O)NC(CC(=O)O)C(=O)CF)c1 (centres unmarked) [Example 16, 5-Fluoro-3-(3-methoxybenzoylamino)-4-oxo-pentanoic Acid]	< 200	B (kinact between 40,000 and 60,000)	–
O=C(O)CC(NC(=O)c1ccc(-c2ccccc2)o1)C(=O)CF (centres unmarked) [Example 34, 5-Fluoro-3-(5-phenyl-furyl-2-carboxamido)-4-oxo-pentanoic Acid]	200 to 1000	A (kinact (1/M/s) greater than 60,000)	–
